Results as given in US20250288587A1, “Methods of Treating Fibrosis” (Athira Pharma, Inc., priority 2022, published 2025).

Experiments:
Assay type in all cases: in vivo
CFA-stimulated rats = assay: CFA inflammatory pain model, thermal hyperalgesia (Hargreaves method); conditions: Day 5, 1 hour pre-dosing; data not shown
[1] = tested on: pulmonary LPS-stimulated rats; assay: Immune cell infiltration in BALF, LPS-induced acute pulmonary inflammation; set-up: key to Total Leukocytes in BALF, reduction in cell count vs disease control / Neutrophils in BALF, reduction in cell count vs disease control: + = >5-25% improvement vs disease control; ++ = >26-50% improvement vs disease control; +++ = >51-100% improvement v disease control; NS means not significant; conditions: 24 h and 0.5 h before LPS; for Neutrophils in BALF, reduction in cell count vs disease control / Total Leukocytes in BALF, reduction in cell count vs disease control: BALF 4 h post LPS; for total leukocyte counts and neutrophil counts in BALF compared to LPS-only controls: IV
Excerpt: Acute pulmonary inflammation can be effectively modeled in rats by intratracheal administration of bacterial lipopolysaccharides (LPS). Pulmonary inflammation that is left unresolved can lead to pulmonary fibrosis. The normal process of inflammation is regulated and promoted by expression, secretion, and distribution of inflammatory signaling proteins. Therapeutics intended to reduce inflammation are commonly identified by their ability to change the expression levels of inflammatory signaling molecules, either by disruption of the inflammatory pathway directly, or resolution of the inflammatory signaling cascade. The severity of inflammatory response can be measured by quantifying the amount of immune cell infiltration and secretion of cytokine signaling proteins in bronchoalveolar lavage fluid (BALF).
In this study, acute pulmonary inflammation was induced in healthy male Sprague-Dawley rats (7-9 weeks old at study start) by intratracheal instillation of […] LPS in saline. Test animals were treated with test compounds twice, at 24 hours and 0.5 hours before LPS treatment by intravenous (IV) injection. […] Four hours post LPS administration, animals were euthanized by intraperitoneal injection of thiopentone and 20 mL of cold Hanks Balanced Salt Solution, pH 7.2, was infused into the lungs through tracheal cannulation. BALF was then collected.
Immune cell infiltration was performed by counting total leukocytes using a MUSE® mini flow cytometer, and by manual counting of neutrophil cells in cytospin smears stained with Leishman's staining reagent.

[2] = tested on: BALB/c mice, CCl4 mouse model of liver fibrosis; assay: CCl4-induced liver fibrosis, plasma AST; conditions: for AST in plasma, improvement compared to disease control: from study day 21, termination day 43
Experimental: Liver fibrosis in BALB/c mice was induced by biweekly intraperitoneal injections of carbon tetrachloride (CCl4) from study day 0 to 43. Mice were treated with vehicle, Compound 1a, or positive control, SB535334, beginning at study day 21. At termination (study day 43), plasma was tested for liver function via levels of aspartate aminotransferase (AST).
AST can be used as a marker of liver damage, because increased levels are released in the blood stream in chronic liver disease.

[3] = tested on: C57BL/6 mice, bleomycin-induced pulmonary fibrosis; assay: Bleomycin-induced pulmonary fibrosis in mice; set-up: key to Collagen, improvement in BLM-induced alterations versus disease control / Alpha-Smooth Muscle Actin, improvement in BLM-induced alterations versus disease control / Body Weight, improvement in BLM-induced alterations versus disease control / Right Lung Weight, improvement in BLM-induced alterations versus disease control / Hydroxyproline, improvement in BLM-induced alterations versus disease control: + = >5-25% improvement vs disease control; ++ = >26-50% improvement vs disease control; +++ = >51-100% improvement v disease control; NS means not significant; conditions: for Body Weight, improvement in BLM-induced alterations versus disease control / Right Lung Weight, improvement in BLM-induced alterations versus disease control: days 3-21; for Collagen, improvement in BLM-induced alterations versus disease control / Hydroxyproline, improvement in BLM-induced alterations versus disease control / TGF-Beta, improvement in BLM-induced alterations versus disease control: right lung homogenate
Experimental: Lung fibrosis in C57BL/6 mice is induced by a single […] injection of the chemotherapy drug bleomycin. Mice are treated with vehicle or test compound. At termination (study day 28), one lung is weighed, with increased weight indicating more advanced fibrosis. Lung tissue is also homogenized for hydroxyproline, collagen, and TGF-β quantification. Lung tissue is also formalin-fixed and further processed for H&E, collagen morphometry, Ashcroft's score, and both α-SMA and TUNEL expression analyses. Plasma is analyzed by multiplex bead array for MMP-2, MMP-9, IL-1β, IL-6, IL-12, and TNF-α expression.
The experimental design described in Example B1 with the following changes was used to assess the ability of Compound 1a to reduce pulmonary fibrosis. Briefly, Male C57BL/6 mice (Envigo) […] were used. The mice were 3.5-4 months old and ˜24-30 g by weight. On day −1 animals were randomized based on body weight and the animals were assigned with a permanent number by ear notching. Cages were identified by cage cards indicating the study code, group number, sex, dose, cage number, number of animals and animal number details.
On day 0, all animals (except the sham control animals) were administered bleomycin (0.03 U in 50 μl normal saline) intratracheally (i.t.) under Ketamine+Xylazine anesthesia. The sham control animals were dosed with 50 μl of normal saline intratracheally. Pirfenidone was used as a positive control; this compound is known to downregulate growth factors and procollagens to reduce fibrosis and is an approved drug for the treatment of idiopathic pulmonary fibrosis.
Vehicle, pirfenidone and test Compound 1a dosing was initiated from day 3 to day 21 as described in the following Table 2. On day 21 whole blood was collected 1-hour post-dose into EDTA and then processed to plasma. Right lungs were then collected, weighed, snap frozen and later homogenized for biochemical analysis. Hydroxyproline, collagen and TGF-Beta levels were measured in the right lung homogenates.

[4] = tested on: pulmonary LPS-stimulated rats; assay: Immune cell infiltration in BALF, LPS-induced acute pulmonary inflammation; conditions: 0.0075 mg/kg IV, 24 h and 0.5 h before LPS; BALF 4 h post LPS
[5] = dose 0.2 mg/kg PO daily, day 21
[6] = dose 0.8 mg/kg PO daily, day 21

CCC(C)CN1CC2N(C(=O)c3ccc(C(F)(F)F)cc3)CCC(=O)N2[C@@H](C)C1=O (some centres unmarked) [Compound 1a] was tested, and the “PWL (paw withdrawal latency)” value (CFA-stimulated rats) was “statistically significant increase”, the “Neutrophils in BALF, reduction in cell count vs disease control” value (shortened to “Neutrophils in BALF, reduction”) ([1]; 0.075 mg/kg IV) was “+ (+ = >5% reduction in cell count vs disease control)” and the “Total Leukocytes in BALF, reduction in cell count vs disease control” value (“Total Leukocytes in BALF, reduction” below) ([1]; 0.075 mg/kg IV) was “+ (+ = >5% reduction in cell count vs disease control)”. The “Neutrophils in BALF, reduction” value ([1]; 0.75 mg/kg IV) was “NS”, the “Total Leukocytes in BALF, reduction” value ([1]; 0.75 mg/kg IV) was “NS” and the “total leukocyte counts and neutrophil counts in BALF compared to LPS-only controls” value [1] was “reduced both total leukocyte counts and neutrophil counts”. The “AST levels in plasma compared to CCl4-treated mice receiving vehicle” value ([2]; 0.5 mg/kg, 8 mg/kg, and 16 mg/kg) was “modest but non-significant decreases”, the “AST in plasma, improvement compared to disease control” value (shortened to “AST … compared to disease control”) ([2]; Dose 0.5 (mg/kg)) was “++ (++ = >26-50% improvement compared to disease control)” and the “AST … compared to disease control” value ([2]; Dose 2 (mg/kg)) was “− (− = change of <5% compared to disease control)”. The “AST … compared to disease control” value ([2]; Dose 8 (mg/kg)) was “++ (++ = >26-50% improvement compared to disease control)”, the “AST … compared to disease control” value ([2]; Dose 16 (mg/kg)) was “++ (++ = >26-50% improvement compared to disease control)” and the “body weight loss compared to the other treatment groups” value ([3]; 0.8 mg/k) was “slightly greater weight loss”. The “collagen in right lung homogenate compared with pirfenidone” value ([3]; 2 mg/kg) was “about the same levels of collagen”, the “collagen concentration in right lung homogenates” value ([3]; 8 mg/kg) was “reduced compared to the pirfenidone positive control” and the “hydroxyproline concentration in right lung homogenates at termination” value ([3]; 8 mg/kg and 2 mg/kg, also less than pirfenidone-treated animals) was “lower concentrations of hydroxyproline”. The “weight of whole right lungs at termination (day 21)” value ([3]; 8 mg/kg and 2 mg/kg, versus pirfenidone-treated animals) was “less than the positive control”, the “alpha-smooth muscle actin expression” value ([3]; 8 mg/kg, day 21) was “significantly reduced expression of this marker” and the “bleomycin-induced increases in TGF-β in right lung homogenates” value ([3]; all doses, day 21) was “significantly protected against bleomycin-induced increases in TGF-β”. For the same molecule, the “protection against bleomycin-induced body weight loss” value ([3]; all treatment groups, over the study period) was “did not protect against body weight loss”, the “Body Weight, improvement in BLM-induced alterations versus disease control” value ([3]; dose 0.2 mg/kg PO daily) was “NS” and the “Right Lung Weight, improvement in BLM-induced alterations versus disease control” value [3, 5] was “NS”. For the same molecule, the “Alpha-Smooth Muscle Actin, improvement in BLM-induced alterations versus disease control” value [3, 5] was “+ (+ = >5-25% improvement vs disease control)”, the “Collagen, improvement in BLM-induced alterations versus disease control” value [3, 5] was “NS” and the “Hydroxyproline, improvement in BLM-induced alterations versus disease control” value [3, 5] was “NS”. The “TGF-Beta, improvement in BLM-induced alterations versus disease control” value [3, 5] was “+++ (+++ = >51-100% improvement v disease control)”, the “Body Weight, improvement in BLM-induced alterations versus disease control” value ([3]; dose 0.8 mg/kg PO daily) was “NS” and the “Right Lung Weight, improvement in BLM-induced alterations versus disease control” value [3, 6] was “+ (+ = >5-25% improvement vs disease control)”. For the same molecule, the “Alpha-Smooth Muscle Actin, improvement in BLM-induced alterations versus disease control” value [3, 6] was “NS”, the “Collagen, improvement in BLM-induced alterations versus disease control” value [3, 6] was “+ (+ = >5-25% improvement vs disease control)” and the “Hydroxyproline, improvement in BLM-induced alterations versus disease control” value [3, 6] was “NS”. The “TGF-Beta, improvement in BLM-induced alterations versus disease control” value [3, 6] was “+++ (+++ = >51-100% improvement v disease control)”, the “Body Weight, improvement in BLM-induced alterations versus disease control” value ([3]; dose 2 mg/kg PO daily) was “NS” and the “Right Lung Weight, improvement in BLM-induced alterations versus disease control” value ([3]; dose 2 mg/kg PO daily, day 21) was “+ (+ = >5-25% improvement vs disease control)”. The “Alpha-Smooth Muscle Actin, improvement in BLM-induced alterations versus disease control” value ([3]; dose 2 mg/kg PO daily, day 21) was “+ (+ = >5-25% improvement vs disease control)”, the “Collagen, improvement in BLM-induced alterations versus disease control” value ([3]; dose 2 mg/kg PO daily, day 21) was “++ (++ = >26-50% improvement vs disease control)” and the “Hydroxyproline, improvement in BLM-induced alterations versus disease control” value ([3]; dose 2 mg/kg PO daily, day 21) was “++ (++ = >26-50% improvement vs disease control)”. For the same molecule, the “TGF-Beta, improvement in BLM-induced alterations versus disease control” value ([3]; dose 2 mg/kg PO daily, day 21) was “+++ (+++ = >51-100% improvement v disease control)”, the “Body Weight, improvement in BLM-induced alterations versus disease control” value ([3]; dose 8 mg/kg PO daily) was “NS” and the “Right Lung Weight, improvement in BLM-induced alterations versus disease control” value ([3]; dose 8 mg/kg PO daily, day 21) was “++ (++ = >26-50% improvement vs disease control)”. The “Alpha-Smooth Muscle Actin, improvement in BLM-induced alterations versus disease control” value ([3]; dose 8 mg/kg PO daily, day 21) was “++ (++ = >26-50% improvement vs disease control)”, the “Collagen, improvement in BLM-induced alterations versus disease control” value ([3]; dose 8 mg/kg PO daily, day 21) was “+++ (+++ = >51-100% improvement v disease control)” and the “Hydroxyproline, improvement in BLM-induced alterations versus disease control” value ([3]; dose 8 mg/kg PO daily, day 21) was “+ (+ = >5-25% improvement vs disease control)”. The “TGF-Beta, improvement in BLM-induced alterations versus disease control” value ([3]; dose 8 mg/kg PO daily, day 21) was “+++ (+++ = >51-100% improvement v disease control)”, the “alpha-smooth muscle actin morphometory” value ([3]; other doses of Compound 1a, pirfenidone doses, day 21) was “insignificant decreases” and the “Neutrophils in BALF, reduction” value [4] was “++ (++ = >25% reduction in cell count vs disease control)”. The “Total Leukocytes in BALF, reduction” value [4] was “++ (++ = >25% reduction in cell count vs disease control)”.

For CCC(C)CN1CC2N(Cc3ccc(C(F)(F)F)cc3)CCC(=O)N2[C@@H](C)C1=O (some centres unmarked) [Compound 5a], the “Neutrophils in BALF, reduction” value ([1]; 0.075 mg/kg IV) was “++ (++ = >25% reduction in cell count vs disease control)”, the “Total Leukocytes in BALF, reduction” value ([1]; 0.075 mg/kg IV) was “++ (++ = >25% reduction in cell count vs disease control)” and the “Neutrophils in BALF, reduction” value ([1]; 0.75 mg/kg IV) was “+ (+ = >5% reduction in cell count vs disease control)”. For the same molecule, the “Total Leukocytes in BALF, reduction” value ([1]; 0.75 mg/kg IV) was “+ (+ = >5% reduction in cell count vs disease control)”, the “Neutrophils in BALF, reduction” value ([1]; 7.5 mg/kg IV) was “+ (+ = >5% reduction in cell count vs disease control)” and the “Total Leukocytes in BALF, reduction” value ([1]; 7.5 mg/kg IV) was “+ (+ = >5% reduction in cell count vs disease control)”. For the same molecule, the “total leukocyte counts and neutrophil counts in BALF compared to LPS-only controls” value [1] was “reduced both total leukocyte counts and neutrophil counts”.
